From publication PMC2774234 (Molecular cancer research : MCR, 2009)

Test system: Prx1
Test: Immunoblot of Prx1 after transient Prx1 siRNA transfection of LNCaP cells
Assay type: cell-based, human
Details: 75 nM siRNA

## 11838: Ambion siRNA directed against exon 6 of Prx1; sense 5'-GGCUACUGGUUUGUAUGAUTT-3' (antisense AUCAUACAAACCAGUAGCCTG; chemistry not given here) [compound 11838]
  expression of Prx1 (immunoblot): essentially abolished the expression of Prx1
